No end group written: not given here.

The results in this text go back to patent publication US20250042969A1, “ANTIGEN DISCOVERY FOR T CELL RECEPTORS ISOLATED FROM PATIENT TUMORS RECOGNIZING WILD-TYPE ANTIGENS AND POTENT PEPTIDE MIMOTOPES” (The Board of Trustees of the Leland Stanford Junior …, priority 2017, published 2025).

One assay has as its system NKI2. The assay is described as follows: IFNγ production by NKI2-transduced peripheral blood lymphocytes with peptide-pulsed JY cells. The conditions noted are these: 1:1 with peptide-pulsed JY cells, 5-hour incubation, intracellular staining. The format is cell-based, human. The procedure:
CDK4-specific TCRs clone 10 (NKI1) and 17 (NKI2) were derived from TILs of a melanoma patient that were screened with HLA multimers loaded with predicted neoantigens, essentially as described. The variable parts of both TCRs were cloned into a retroviral vector encoding the murine TCR α and β constant domains. FLYRD18 packaging cells were plated in 10 cm dishes at 1.2×10^6 cells/well. After one day, cells were transfected with 10 μg retroviral vector DNA encoding the CDK4 TCRs using 25 μl X-tremeGENE HP DNA (Sigma-Aldrich). After 48 hrs, retroviral supernatant was isolated and transferred to retronectin-coated 24-well plates and centrifuged for 90 minutes at 430 g. PBMCs were activated and selected with anti-CD3/CD28 beads (ThermoFisher) at a bead-to-cell ratio of 3:1. Forty-eight hours after stimulation, T cells were plated at 0.5×10^6 cells/mL on virus-coated plates. Surface expression of the introduced CDK4 TCRs on transduced T cells was measured using APC labeled CDK4 R>L HLA-A*02:01 tetramers in combination with anti-murine VB TCR-PE labeled antibody (BD Biosciences). Cells were analyzed using a FACSCalibur (Becton Dickinson). JY cells were pulsed with the CDK4 peptide or the predicted peptides at the indicated concentrations for 1 hr at 37° C. and then washed two times. […]

In a further assay the test system is TCR 4B. Kind of assay: CD69 activation of SKW-3 T cells expressing TCR 4B co-cultured with peptide-pulsed T2 cells. The conditions noted are these: T2 cells pulsed with 100 μM peptide 3 hours, co-incubated 18 hours, flow cytometry. (Flow cytometry measures light scatter and fluorescence of single cells or particles in a stream.)
Assay [1] relates to TCR 3B. Kind of assay: CD69 activation of SKW-3 T cells expressing TCR 3B co-cultured with peptide-pulsed T2 cells. The conditions noted are these: T2 cells pulsed with 100 μM peptide 3 hours, co-incubated 18 hours, flow cytometry.
Target sequence in this assay (as listed by the source): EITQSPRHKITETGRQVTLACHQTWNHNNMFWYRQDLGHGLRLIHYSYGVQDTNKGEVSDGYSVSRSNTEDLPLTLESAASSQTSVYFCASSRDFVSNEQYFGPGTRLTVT
Target sequence in this assay (P61769 21-119): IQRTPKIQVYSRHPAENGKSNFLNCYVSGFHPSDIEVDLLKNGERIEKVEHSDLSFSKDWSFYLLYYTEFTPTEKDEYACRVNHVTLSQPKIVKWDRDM
Target sequence in this assay (as listed by the source): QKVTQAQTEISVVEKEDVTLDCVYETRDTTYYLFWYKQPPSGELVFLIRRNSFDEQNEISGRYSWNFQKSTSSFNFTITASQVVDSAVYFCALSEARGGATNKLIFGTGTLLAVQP
From the text: (§2) Measuring T cell activation in co-culture assays. The four TCRs identified from the colorectal cancer patients that selected peptides from the library were cloned into a MSCV-based vector pMIG II in α-P2A-β configuration using the wildtype signal peptides of the TCR variable genes and full length, unmodified constant regions. The P2A skip sequence allows for 1:1 stoichiometric expression of the TCRs. A MSCV-based vector pMIG II was also used to generate human CD3 in the format of δ-F2A-γ-T2A-ε-P2A-ζ. A packaging vector pCL10A was used to incorporate env, gag, and pol to allow for human mammalian tropism and viral generation. […]
(§3) The transduced SKW-3 cells were co-cultured with TAP-deficient T2 cells in a 2:1 ratio with various peptide dilutions. The top 5 synthetic peptides isolated from the yeast-display selections were tested along with predictions determined from the 3 prediction algorithms. […] CD69 (FN50, BioLegend) was measured at 18 hours to detect early T cell activation by flow cytometry using the Accuri C6 (BD Biosciences). SKW-3 T cells were detected by UCHT1 staining and checked for TCR and CD3 expression. […] Data was analyzed using FlowJo version 10 (FlowJo, LLC) and samples were gated on SKW-3 cells by forward and side scatter and UCHT1+ cells followed by analysis for CD69 expression. […]
(§4) T-cell stimulation assays using SKW-3 cells. […] All biological triplicates were analyzed collectively.
Assay [2] relates to TCR 2A. Kind of assay: CD69 activation of SKW-3 T cells expressing TCR 2A co-cultured with peptide-pulsed T2 cells. The conditions noted are these: T2 cells pulsed with 100 μM peptide 3 hours, co-incubated 18 hours, flow cytometry.
Target sequence in this assay (P61769 21-119): as the sequence (P61769 21-119) above
Target sequence in this assay (as listed by the source): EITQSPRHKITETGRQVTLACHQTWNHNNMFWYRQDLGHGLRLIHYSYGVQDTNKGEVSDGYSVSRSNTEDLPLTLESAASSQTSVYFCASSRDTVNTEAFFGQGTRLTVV
From the text: as §2, §3, §4
For assay [3], the system named is SKW-3 cells expressing TCR2A. Kind of assay: pHLA tetramer staining of SKW-3 cells expressing TCR2A. The format is binding, human.
The test system of assay [4] is SKW-3 cells expressing TCR 3B. Kind of assay: pHLA tetramer staining of SKW-3 cells expressing TCR 3B. In kind it is binding, human.
Assay [5] concerns TCR 3B. Kind of assay: TCR 3B tetramer staining of yeast expressing single-chain peptide-HLA-A*02:01. The format is binding, human. The conditions noted are these: 400 nM TCR tetramer. The procedure:
(§1) Individual yeast clones isolated from the selections or competent yeast electroporated with reconstructed peptide-HLA constructs identified from the deep sequencing were stained with 400 nM TCR tetramer labeled with SA-647 or SA-647 alone in combination with anti-epitope tag.
Target sequence in this assay (as listed by the source): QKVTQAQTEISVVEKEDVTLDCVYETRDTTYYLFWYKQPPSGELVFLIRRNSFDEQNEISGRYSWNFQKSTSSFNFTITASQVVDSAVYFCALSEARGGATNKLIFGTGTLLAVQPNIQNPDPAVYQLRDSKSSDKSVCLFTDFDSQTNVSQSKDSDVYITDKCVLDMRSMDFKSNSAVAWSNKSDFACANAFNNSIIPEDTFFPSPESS
Target sequence in this assay (as listed by the source): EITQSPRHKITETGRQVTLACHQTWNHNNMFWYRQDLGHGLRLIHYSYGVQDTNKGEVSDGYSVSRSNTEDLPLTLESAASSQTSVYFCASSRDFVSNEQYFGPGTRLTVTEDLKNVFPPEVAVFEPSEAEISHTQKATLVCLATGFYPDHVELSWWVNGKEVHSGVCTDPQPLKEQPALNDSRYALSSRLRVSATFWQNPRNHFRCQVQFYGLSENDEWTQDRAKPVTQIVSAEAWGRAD

Assay [6] relates to TCR 2A. The assay is described as follows: TCR 2A tetramer staining of yeast expressing single-chain peptide-HLA-A*02:01. In kind it is binding, human. The conditions noted are these: 400 nM TCR tetramer. The procedure: as §1
Target sequence in this assay (as listed by the source): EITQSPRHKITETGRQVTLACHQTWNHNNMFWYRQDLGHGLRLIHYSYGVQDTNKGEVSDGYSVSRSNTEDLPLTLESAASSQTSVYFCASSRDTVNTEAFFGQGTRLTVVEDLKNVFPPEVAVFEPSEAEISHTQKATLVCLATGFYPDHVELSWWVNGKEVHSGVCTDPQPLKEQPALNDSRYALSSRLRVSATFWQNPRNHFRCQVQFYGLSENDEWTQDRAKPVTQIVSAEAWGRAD

From the text for TCR 4B: Measuring T cell activation in co-culture assays. The four TCRs identified from the colorectal cancer patients that selected peptides from the library were cloned into a MSCV-based vector pMIG II in α-P2A-β configuration using the wildtype signal peptides of the TCR variable genes and full length, unmodified constant regions. The P2A skip sequence allows for 1:1 stoichiometric expression of the TCRs. A MSCV-based vector pMIG II was also used to generate human CD3 in the format of δ-F2A-γ-T2A-ε-P2A-ζ. A packaging vector pCL10A was used to incorporate env, gag, and pol to allow for human mammalian tropism and viral generation. The vectors introduced puromycin and zeocin selectivity into infected cells. […] The viruses were generated using X-tremeGENE 9 DNA transfection reagent (Sigma-Aldrich) in serum-free DMEM. In cell culture, 2% FBS DMEM was used to recover the cells and media was changed at 12 hours. […] The 2 mL virus of TCR and 2 mL virus of human CD3 was used to co-infect 2×10^6 SKW-3 cells with 5 ug/mL polybrene (Millipore) by spinning for 2 hrs at 2500 rpm at 32° C. The virus was removed and replaced with media and cells cultured. The transduced SKW-3 cells were cultured after 2-3 days in 20 ug zeocin and 1 ug puromycin indefinitely to select for TCR and human CD3 co-expression. Cells were then co-stained for TCR (IP26, BioLegend) and human CD3 (UCHT1, BioLegend) and sorted on the SH800 cell sorter (Sony Biotechnology Inc.).
The transduced SKW-3 cells were co-cultured with TAP-deficient T2 cells in a 2:1 ratio with various peptide dilutions. The top 5 synthetic peptides isolated from the yeast-display selections were tested along with predictions determined from the 3 prediction algorithms. Peptides were synthesized to >70% purity (Genscript) (Elim Biopharm) and resuspended in dimethylsulfoxide to 20 mM and stored at −20° C. CD69 (FN50, BioLegend) was measured at 18 hours to detect early T cell activation by flow cytometry using the Accuri C6 (BD Biosciences). SKW-3 T cells were detected by UCHT1 staining and checked for TCR and CD3 expression. T2 cells were checked for HLA-A*02 expression by antibody (BB7.2, BioLegend). Data was analyzed using FlowJo version 10 (FlowJo, LLC) and samples were gated on SKW-3 cells by forward and side scatter and UCHT1+ cells followed by analysis for CD69 expression. Experiments were done in biological triplicate and technical triplicate. P-values were calculated by ordinary one-way ANOVA in Prism and experiments plotted with either standard deviation or standard error of the mean as indicated.
T-cell stimulation assays using SKW-3 cells. Data is analyzed using Flowjo to gate SKW-3 cells and CD3^+ group to identify T cells. T cells are then gated on CD69 expression using the negative control (no peptide). The median MFI expression of CD69 in the CD3^+ group and the percentage of cells expressing CD69 have been analyzed. One-way ordinary ANOVA was determined for both analyses using Prism in comparison to the negative control (no peptide). The 100 μM peptide stimulation is completed in biological and technical triplicate. Only one of the biological triplicates is shown. The peptide titration experiments were done in biological triplicate. All biological triplicates were analyzed collectively.

For “ALDSRSEHFM [top peptide mimotope selected by NKI2]”, the “IFNγ production by NKI2 transduced T cells” value with NKI2 was “stimulated these cells as potently as the CDK4 neoantigen”.

For KLEQLDWTV, in the assay with TCR 4B, the “CD69 activation of TCR 4B T cell line” value is “stimulated”.

Consider LLEDLDWDV, for which the “CD69 activation of TCR 4B T cell line” value in the assay on TCR 4B is on record as “stimulated”.

For MMDFFNAQM, the “CD69 activation of TCR 3B T cell line” value with TCR 3B [1] is reported as “found to stimulate T cells”. For the same substance, the “CD69 activation of TCR 2A T cell line” value in the assay with TCR 2A [2] is listed as “found to stimulate T cells”.

Consider “MMDFFNAQM-HLA-A*02:01: U2AF2 peptide MMDFFNAQM in complex with HLA-A*02:01, as yeast single-chain trimer or refolded tetramer (not fully specified (C-terminus); also: in complex with HLA-A*02:01 (single-chain trimer or refolded tetramer))”, for which the “pHLA tetramer staining of SKW-3 cells expressing TCR2A” value in assay [3] is on record as “failed to stain”. Moreover, the “pHLA tetramer staining of SKW-3 cells expressing TCR 3B” value in assay [4] is reported as “failed to stain”. Further, the “TCR 3B tetramer staining of yeast” value with TCR 3B [5] is “lack of TCR tetramer staining”. For the same substance, in the assay with TCR 2A [6], the “TCR 2A tetramer staining of yeast” value is “lack of TCR tetramer staining”.

Turning to NMEYMTWDV, the “CD69 activation of TCR 4B T cell line” value with TCR 4B was “stimulated”.

For NVEYYDIKL, the “CD69 activation of TCR 4B T cell line” value in the assay on TCR 4B was “stimulated”.

TLEELDWCL: the “CD69 activation of TCR 4B T cell line” value in the assay on TCR 4B is on record as “stimulated”.

Consider TMETIDWKV, for which the “CD69 activation of TCR 4B T cell line” value with TCR 4B is “stimulated”.

Regarding VLDFQGQL, the “CD69 activation of TCR 2A T cell line” value with TCR 2A [2] was “able to stimulate the receptor”.

Regarding VLEEVDWLI, the “CD69 activation of TCR 4B T cell line” value with TCR 4B was “stimulated”.
